Data published in PubChem BioAssay (NCI).
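Grown in 96-well plates, cells were treated for 48 hours with each compound at five concentrations. Insufficient inhibition: endpoint recorded as highest concentration tested. Abbreviation: GI50, concentration required for 50% inhibition of growth. TGI is the concentration that stops growth completely.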

Columns and labels:
Assay in all cases: NCI tumour cell line growth inhibition, 48 h
MCF7 breast = test system: MCF7 breast
KM12 colon = test system: KM12 colon
OVCAR-8 ovarian = test system: OVCAR-8 ovarian
SK-MEL-2 melanoma = test system: SK-MEL-2 melanoma
NCI-H23 lung = test system: NCI-H23 lung
SF-268 CNS = test system: SF-268 CNS
CCRF-CEM leukemia = test system: CCRF-CEM leukemia
T-47D breast = test system: T-47D breast
UACC-62 melanoma = test system: UACC-62 melanoma
SF-295 CNS = test system: SF-295 CNS
SW-620 colon = test system: SW-620 colon
OVCAR-5 ovarian = test system: OVCAR-5 ovarian
EKVX NSCLC = test system: EKVX NSCLC
HCT-15 colon = test system: HCT-15 colon
HOP-62 NSCLC = test system: HOP-62 NSCLC
ACHN renal = test system: ACHN renal
HL-60(TB) leukemia = test system: HL-60(TB) leukemia
OVCAR-4 ovarian = test system: OVCAR-4 ovarian
OVCAR-3 ovarian = test system: OVCAR-3 ovarian
A549 NSCLC = test system: A549 NSCLC
HS 578T breast = test system: HS 578T breast
TK-10 renal = test system: TK-10 renal
LOX IMVI melanoma = test system: LOX IMVI melanoma
SN12C renal = test system: SN12C renal
HCT-116 colon = test system: HCT-116 colon
SNB-19 CNS = test system: SNB-19 CNS
NCI/ADR-RES ovarian = test system: NCI/ADR-RES ovarian
SK-MEL-5 melanoma = test system: SK-MEL-5 melanoma
MDA-MB-231 breast = test system: MDA-MB-231 breast
SK-OV-3 ovarian = test system: SK-OV-3 ovarian
MOLT-4 leukemia = test system: MOLT-4 leukemia
NCI-H226 lung = test system: NCI-H226 lung
SK-MEL-28 melanoma = test system: SK-MEL-28 melanoma
K-562 leukemia = test system: K-562 leukemia
CAKI-1 renal = test system: CAKI-1 renal
HOP-92 NSCLC = test system: HOP-92 NSCLC
SNB-75 CNS = test system: SNB-75 CNS
786-0 renal = test system: 786-0 renal
MDA-MB-435 = test system: MDA-MB-435
MALME-3M melanoma = test system: MALME-3M melanoma
SF-539 CNS = test system: SF-539 CNS
A498 renal = test system: A498 renal
U251 CNS = test system: U251 CNS
RXF 393 renal = test system: RXF 393 renal
COLO 205 colon = test system: COLO 205 colon
HCC-2998 colon = test system: HCC-2998 colon
NCI-H460 lung = test system: NCI-H460 lung
DU-145 prostate = test system: DU-145 prostate
UO-31 renal = test system: UO-31 renal
RPMI-8226 leukemia = test system: RPMI-8226 leukemia
PC-3 prostate = test system: PC-3 prostate
BT-549 breast = test system: BT-549 breast
UACC-257 melanoma = test system: UACC-257 melanoma
HT29 colon = test system: HT29 colon

## Ic1ccc2[nH]cc(SSc3c[nH]c4ccc(I)cc34)c2c1
MCF7 breast
  GI50: 2690 nM
  TGI: 11.6 µM
KM12 colon
  GI50: 1500 nM
  TGI: 5.83 µM
OVCAR-8 ovarian
  GI50: 3.77 µM
  TGI: 17.8 µM
SK-MEL-2 melanoma
  GI50: 2300 nM
  TGI: 6.96 µM
NCI-H23 lung
  GI50: 2360 nM
  TGI: 7.96 µM
SF-268 CNS
  GI50: 2990 nM
  TGI: 10.9 µM
CCRF-CEM leukemia
  GI50: 1250 nM
  TGI: 3.48 µM
T-47D breast
  GI50: 2680 nM
  TGI: 11.2 µM
UACC-62 melanoma
  GI50: 2700 nM
  TGI: 11.5 µM
SF-295 CNS
  GI50: 1890 nM
  TGI: 4.69 µM
SW-620 colon
  GI50: 2740 nM
  TGI: 10.5 µM
OVCAR-5 ovarian
  GI50: 2380 nM
  TGI: 6.11 µM
EKVX NSCLC
  GI50: 1200 nM
  TGI: 10.1 µM
HCT-15 colon
  GI50: 2210 nM
  TGI: 10.4 µM
HOP-62 NSCLC
  GI50: 3.14 µM
  TGI: 8.71 µM
ACHN renal
  GI50: 2250 nM
  TGI: 6.99 µM
HL-60(TB) leukemia
  GI50: 1180 nM
  TGI: 3.56 µM
OVCAR-4 ovarian
  GI50: 3.02 µM
  TGI: 16.6 µM
OVCAR-3 ovarian
  GI50: 1730 nM
  TGI: 5.56 µM
A549 NSCLC
  GI50: 3.65 µM
  TGI: 12 µM
HS 578T breast
  GI50: 1930 nM
  TGI: 6.24 µM
TK-10 renal
  GI50: 2880 nM
  TGI: 10.1 µM
LOX IMVI melanoma
  GI50: 1430 nM
  TGI: 3.51 µM
SN12C renal
  GI50: 2860 nM
  TGI: 11 µM
HCT-116 colon
  GI50: 1250 nM
  TGI: 3.08 µM
SNB-19 CNS
  GI50: 3.25 µM
  TGI: 11.9 µM
NCI/ADR-RES ovarian
  GI50: 2570 nM
  TGI: 7.13 µM
SK-MEL-5 melanoma
  GI50: 3.18 µM
  TGI: 13.5 µM
MDA-MB-231 breast
  GI50: 2100 nM
  TGI: 5.13 µM
SK-OV-3 ovarian
  GI50: 3.46 µM
  TGI: 11.7 µM
MOLT-4 leukemia
  GI50: 1700 nM
  TGI: 4.62 µM
NCI-H226 lung
  GI50: 1980 nM
  TGI: 9.35 µM
SK-MEL-28 melanoma
  GI50: 3.36 µM
  TGI: 12.6 µM
K-562 leukemia
  GI50: 2000 nM
  TGI: 6.27 µM
CAKI-1 renal
  GI50: 2230 nM
  TGI: 6.3 µM
HOP-92 NSCLC
  GI50: 936 nM
  TGI: 3.69 µM
SNB-75 CNS
  GI50: 2360 nM
  TGI: 9.28 µM
786-0 renal
  GI50: 3.49 µM
  TGI: 12.4 µM
MDA-MB-435
  GI50: 2840 nM
  TGI: 8.97 µM
MALME-3M melanoma
  GI50: 1920 nM
  TGI: 8.29 µM
SF-539 CNS
  GI50: 2390 nM
  TGI: 9.29 µM
A498 renal
  GI50: 2060 nM
  TGI: 5.97 µM
U251 CNS
  GI50: 2250 nM
  TGI: 10.1 µM
RXF 393 renal
  GI50: 1500 nM
  TGI: 5.68 µM
COLO 205 colon
  GI50: 1910 nM
  TGI: 4.02 µM
HCC-2998 colon
  GI50: 2340 nM
  TGI: 4.76 µM
NCI-H460 lung
  GI50: 2410 nM
  TGI: 6.52 µM
DU-145 prostate
  GI50: 3.47 µM
  TGI: 12.9 µM
UO-31 renal
  GI50: 3.06 µM
  TGI: 17.3 µM
RPMI-8226 leukemia
  GI50: 1780 nM
  TGI: 5.5 µM
PC-3 prostate
  GI50: 492 nM
  TGI: 4.65 µM
BT-549 breast
  GI50: 1350 nM
  TGI: 7.04 µM
UACC-257 melanoma
  GI50: 2790 nM
  TGI: 6.74 µM
HT29 colon
  GI50: 3.36 µM
  TGI: 11.2 µM
